Assay results published in patent US8691498B2, “Methods of screening for a compound that reduces atherogenesis” (Arena Pharmaceuticals, Inc., priority 2005, dated 2014).

What was measured:
[1] = tested on: GPR84 mRNA in human monocytes; assay: GPR84 mRNA expression in primary human monocytes (QRT-PCR); assay type: cell-based; conditions: overnight
Text: Peripheral blood leukocytes were separated from erythrocytes by sedimentation in a dextran containing saline solution. The leukocytes were washed, and mononuclear cells were isolated on a Ficoll density gradient. Peripheral blood mononuclear cells were then washed and negatively selected using a MACS® monocyte isolation kit II (Miltenyi Biotec, Auburn, Calif.) and LS MACS® cell separation columns according to manufacturer's instructions. Freshly isolated monocytes were then resuspended in culture medium alone or culture medium supplemented with TNFα (10 ng/ml) or IFNγ (10 or 100 ng/ml) and allowed to adhere to wells precoated with vitronectin. Cultures were harvested at the indicated times. GPR84 TaqMan analysis was performed essentially as described in Part A of Example 15, infra. Multiple replicates were obtained from different individual donors. Data are expressed as the mean of the ratio of the GPR84 signal to the HS9 (Human ribosomal protein S9, housekeeping gene) signal±SEM.

GPR84 [2] = target: T1, GPR84 (Homo sapiens, UniProt Q9NQS5); assay: GTPγS binding assay with membranes from GPR84 transfected CHO-KI cells; assay type: biochemical; conditions: not shown
T1 sequence (Q9NQS5 whole entry): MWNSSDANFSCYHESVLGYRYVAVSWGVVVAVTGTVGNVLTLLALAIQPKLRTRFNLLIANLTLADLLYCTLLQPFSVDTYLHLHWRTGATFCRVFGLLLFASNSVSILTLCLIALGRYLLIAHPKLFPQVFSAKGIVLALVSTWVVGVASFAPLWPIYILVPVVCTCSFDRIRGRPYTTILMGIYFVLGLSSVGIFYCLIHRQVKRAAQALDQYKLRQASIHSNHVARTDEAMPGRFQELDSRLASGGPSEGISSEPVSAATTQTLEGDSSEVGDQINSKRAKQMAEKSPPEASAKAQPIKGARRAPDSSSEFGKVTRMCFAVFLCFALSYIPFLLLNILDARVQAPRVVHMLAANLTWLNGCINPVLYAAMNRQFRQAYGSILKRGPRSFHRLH
Method: GTPγS assay of GPR84 activity was carried out. Membranes prepared from GPR84 transfected CHO-KI cells were dissolved in binding buffer (20 mM HEPES, pH 7.4, 100 mM NaCl, 10 mM MgCl2) and homogenized briefly using a polytron. Membrane protein concentration was determined by Bradford assay and the membranes were diluted to 0.4 mg/ml in binding buffer. […] Binding was allowed to proceed for one hour before centrifuging the plates at room temperature to pellet the membrane and subsequent counting in a TopCount scintillation counter.

GPR88 = GPR88 (Homo sapiens, UniProt Q9GZN0); assay: EC50 at GPR88 (selectivity, data not shown); assay type: cell-based; conditions: for selectivity for GPR84 over GPR88: concluded from EC50 at GPR84 and GPR88; for EC50: not shown
Sequence of GPR88 (Q9GZN0 whole entry): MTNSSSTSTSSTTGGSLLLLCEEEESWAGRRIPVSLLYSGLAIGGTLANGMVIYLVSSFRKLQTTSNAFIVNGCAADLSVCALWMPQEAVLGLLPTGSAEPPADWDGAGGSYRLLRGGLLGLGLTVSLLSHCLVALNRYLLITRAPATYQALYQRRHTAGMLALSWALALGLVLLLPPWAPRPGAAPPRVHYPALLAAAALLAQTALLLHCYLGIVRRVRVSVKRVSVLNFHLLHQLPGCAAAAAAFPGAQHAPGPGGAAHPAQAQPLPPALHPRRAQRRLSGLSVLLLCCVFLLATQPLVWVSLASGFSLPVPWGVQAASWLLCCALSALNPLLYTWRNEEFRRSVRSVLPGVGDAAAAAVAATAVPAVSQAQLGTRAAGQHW

GPR84 [3] = target: T1, GPR84; assay: Melanophore pigment aggregation assay, melanophores transiently transfected with human GPR84; assay type: cell-based; design: Full-Length Cloning of Endogenous Human GPR84; expressed in transfected cells; host or cells: melanophores (transient transfection); conditions: representative melanophore assay, one hour incubation
Text: Melatonin activates an endogenous Gi-coupled receptor in the melanophores and causes them to aggregate their pigment. […] If the receptor were either a Gs or Gq coupled receptor, then the melatonin-aggregated melanophores would undergo pigment dispersion. In contrast, if the receptor was a Gi-coupled receptor, then the pigment-dispersed cells would be expected to undergo a dose-dependent pigment aggregation.

GPR84 [4] = target: T1, GPR84; assay: Cyclase (cAMP Flashplate) assay in 293 cells transfected with GPR84; assay type: cell-based; conditions: 1 hr treatment
Text: Thyroid-stimulating hormone (TSH, or thyrotropin) receptor (TSHR) causes the accumulation of intracellular cAMP on activation by its ligand TSH. An effective technique for measuring the decrease in production of cAMP corresponding to activation of a Gi-coupled receptor is to co-transfect TSHR with the Gi-coupled receptor and to carry out the assay in the presence of TSH to raise the level of basal cAMP, whereby TSHR acts as a “signal window enhancer.” Such an approach was used here. Cyclase assay of GPR84 activity was carried out. 293 cells were transfected with either vector alone or vector containing polynucleotide encoding GPR84.

[5] = tested on: ABCA1 mRNA in human macrophage; assay: Steady-state ABCA1 mRNA level in human macrophage (TaqMan); assay type: cell-based; conditions: human monocyte-derived macrophage, 24 hours
Method: Macrophages were derived from monocytes as previously indicated. […] Vehicle was dimethyl sulfoxide (DMSO); the final concentration of DMSO in the culture was 0.1% (v/v). Total RNA was extracted from the cells and analyzed by TaqMan analysis as previously indicated to assess steady-state ABCA1 mRNA level. Data are the average and SD of three replicates. The qPCR reactions were prepared from the cDNA using the Bio-Rad qPCR kit, following the manufacturer's protocol. The qPCR reactions were performed using the ABI Prism 7900HT machine with the following temperatures and times: 50° C.—2 min, 95° C.—10 min followed by 40 cycles of 95° C.—15 sec and 60° C.—1 min.

[6] = tested on: MCP-1 mRNA in human macrophage; assay: Steady-state MCP-1 mRNA level in human macrophage (microarray); assay type: cell-based; conditions: 10 μM, 24 hours
Method: (§1) Human peripheral blood monocytes were isolated from buffy coat by dextran and ficoll purification. Monocytes were then purified using a monocyte isolation kit from Miltenyi Biotec. Monocytes were cultured for 7 days with 10 ng/ml GM-CSF to derive macrophage cells. […] MCP-1 and IL-8 steady-state mRNA levels were assessed by microarray analysis. Vehicle was dimethyl sulfoxide (DMSO); the final concentration of DMSO in the culture was 0.1% (v/v). Expression levels are the average and SD of two replicates.

[7] = tested on: IL-8 mRNA in human macrophage; assay: Steady-state IL-8 mRNA level in human macrophage (microarray); assay type: cell-based; conditions: 10 μM, 24 hours
Method: as §1

[8] = tested on: TNFα secretion by human macrophage; assay: TNFα secretion by human macrophage (ELISA); assay type: cell-based; conditions: 10 μM for 24 hrs, absence or presence of LPS
Method: Human peripheral blood monocytes were isolated from buffy coat by dextran and ficoll purification. Monocytes were then purified using a monocyte isolation kit from Miltenyi Biotec. Monocytes were cultured for 7 days with 10 ng/ml GM-CSF to derive macrophage cells. […] Vehicle was dimethyl sulfoxide (DMSO); the final concentration of DMSO in the culture was 0.1% (v/v). Cells were then stimulated with the indicated concentrations of LPS for 24 hours. Supernatants were collected and TNFα levels were assayed using a human specific TNFα ELISA kit from Biosource.

[9] = tested on: TNFα secretion by mouse macrophage cell line RAW; assay: TNFα secretion by mouse macrophage cell line RAW (ELISA); assay type: cell-based; conditions: RAW cells, 1 μM for 24 hours, absence or presence of LPS
Method: RAW cells were cultured to subconfluency. […] Vehicle was dimethyl sulfoxide (DMSO); the final concentration of DMSO in the culture was 0.1% (v/v). Cells were then stimulated with the indicated concentrations of LPS for 24 hours. Supernatants were collected and TNFα levels were assayed using a mouse specific TNFα ELISA kit from Biosource.

GPR84 [10] = target: T1, GPR84; assay: IP3 assay in 293 cells transfected with GPR84, with or without Gq(del)/Gi chimeric G protein; assay type: cell-based; design: expressed in transfected cells; host or cells: 293 cells comprising or not comprising Gq(del)/Gi; conditions: 293 cells comprising Gq(del)/Gi chimeric G protein, 10 μM, 3 hrs
Method: IP3 Assay of GPR84 activity was carried out. 293 cells were transfected with either vector alone or vector containing polynucleotide encoding GPR84. […] 24 hrs after transfection, cells were plated into 96 well plates, labeled overnight with ^3H-myoinositol.

## TNFα
[1]; primary human monocytes, 10 ng/ml
  GPR84 mRNA expression: significant increase

## IFNγ: proinflammatory cytokine interferon gamma
[1]; primary monocytes, 10 or 100 ng/ml
  GPR84 mRNA expression: dose-dependent increase

## Pertussis toxin
GPR84 [2]
  effect on stimulation of GTPγS binding to membrane by Compound 1: inhibit

## CCCCC/C=C/C/C=C/C=C/C=C/[C@@H](O)[C@@H](O)CCCC(=O)O [Compound 3, 5S,6R-Dihydroxy-icosa-7,9,11,14-tetraenoic acid]
GPR88
  selectivity for GPR84 over GPR88: selective GPR84 agonist
  EC50: > 10 µM
GPR84 [3]
  EC50: 0.0308 µM

## CCCCCC#CCC#CCC#CCC#CCCCC(=O)O [Compound 2, Icosa-5,8,11,14-tetraynoic acid]
GPR88
  selectivity for GPR84 over GPR88: selective GPR84 agonist
  EC50: > 10 µM
GPR84 [3]
  EC50: 0.0482 µM

## CCCCCCCCCCCC1=C(O)C(=O)C=C(O)C1=O [Compound 1, 2,5-Dihydroxy-3-undecyl-[1,4]benzoquinone]
GPR88
  EC50: > 100 µM
GPR84 [4]
  level of intracellular cAMP: decrease
[5]
  steady-state level of ABCA1 mRNA: increase
[6]
  steady-state level of MCP-1 mRNA: decrease
[7]
  steady-state level of IL-8 mRNA: increase
[8]
  TNFα secretion: no effect
[9]
  TNFα secretion: no effect
GPR84 [10]
  level of intracellular IP accumulation: increase
